From patent US20070161691A1, “Modified-protein formation inhibitor” (TOKAI UNIVERSITY, priority 2003, published 2007)

Experiments:
[1] = Vitamin B6 (PLP; pyridoxal phosphate) trapping; assay type: biochemical; details: 500 μM compound, 50 μM PLP, PBS
Procedure: To a solution of vitamin B6, the compound of this invention is added, and after a certain period of time, an amount of vitamin B6 remained is determined.
4-(5-phenyltetrazol-1-ylmethyl)-morpholine (Compound 1), 5-methyl-1-(5-phenyltetrazol-1-ylmethyl)-3a,6a-dihydro-1H-pyrrolo[3,4-d][1,2,3]triazol-4,6-dione (Compound 2) and (5-phenyltetrazol-1-yl)methanol (Compound 3) as well as aminoguanidine as the positive control were each dissolved in DMSO in a designed concentration to make a sample solution. DMSO itself was used as the negative control. In addition, pyridoxal phosphate (PLP) was dissolved in purified-water to make a designed concentration. PBS was added to each of the test compound, the positive control and the negative control, to make a final concentration of 500 μM. The PLP solution as above prepared was added to each of the resultant solution to make a final concentration of 50 μM for preparation of the PLP reaction solution. Using HPLC, the amount of PLP in the PLP reaction solution was determined after 0.1 and 10 hours, from which the PLP trapping amount of each test compound was ascertained.
The analysis of PLP using HPLC was carried out by separation with reverse-phase C18 column (4.6×250 mm, 5 μm; Waters) and by using a fluorescence detector (RF-10A; Shimazu Seisakusho; excitation wavelength, 300 nm and fluorescence wavelength, 400 nm). In the mobile phase, the flow rate was 0.6 mL/min and the concentration of buffer B was varied from 0% to 3% in 25 minutes (buffer A: 0.10% trifluoroacetic acid; buffer B: 80% acetonitrile containing 0.08% trifluoroacetic acid).

pentosidine formation = experiment: AGEs (pentosidine) formation inhibiting effect in plasma from dialysis patients; assay type: biochemical, human; details: for Pentosidine formation: 5 mM; for pentosidine formation suppression: plasma from the patients with dialysis
Procedure: Before dialysis, blood samples were obtained from non-diabetic volunteer dialysis patients with renal failure, and fresh heparinized plasma samples were prepared therefrom Pooled plasma obtained from several patients (n=3˜5) was served to the test. 4-(5-phenyltetrazol-1-ylmethyl)-morpholine (Compound 1), 5-methyl-1-(5-phenyltetrazol-1-ylmethyl)-3a,6a-dihydro-1H-pyrrolo[3,4-d][1,2,3]triazole-4,6-dione (Compound 2) or (5-phenyltetrazol-1-yl)methanol (Compound 3) adjusted to a designed concentration ([…]), in DMSO solution (100 μl), was added to the pooled plasma (900 μl) and incubated at 37° C. for 7 days in the presence of air. Then, the amount of pentosidine was measured to estimate the suppressive effect on the glycation of protein.
Measurement of the amount of pentosidine was made as follows: to each incubated sample (50 μL) was added an equal volume of 10% trichloroacetic acid, followed by centrifugation at 5000 g for 5 minutes; after removal of the supernatant, the pellet was washed by 5% trichloroacetic acid (300 μL); the pellet was dried under reduced pressure and then subjected to hydrolysis in 6N HCI solution (100 μL) at 110° C. under nitrogen atmosphere for 16 hours; to the hydrolysate, 5N NaOH (100 μL) and 0.5 M phosphate buffer (pH 7.4) (200 μL) were added, followed by filtration through a porefilter with a pore size of 0.5 μm and dilution with PBS. The concentration of free pentosidine was determined by reversed-phase HPLC using a fluorescence detector (RF-10A, Shimazu Seisakusho) (Miyata, T. et al.: Proc. Natl. Acad. Sci. USA, 93, 2353-2358, 1996). The effluent was monitored at 335/385 nm of excitation/emission wavelength. Synthetic pentosidine was used as the standard. The detection limit of pentosidine was 0.1 pmol/mg protein.
The inhibiting effect was estimated by comparing with positive control (aminoguanidine and pyridoxamine (Sigma)) reacted in the same manner as 4-(5-phenyltetrazol-1-yl-methyl)-morpholine (Compound 1), 5-methyl-1-(5-phenyltetrazol-1-ylmethyl)-3a,6a-dihydro-1H-pyrrolo[3,4-d][1,2,3]triazole-4,6-dione (Compound 2) and (5-phenyltetrazol-1-yl)methanol (Compound 3).

[2] = Suppressive effect on the hydroxylation of phenylalanine with hydroxy radical; assay type: biochemical; details: in comparison with pyridoxamine as positive control; 0.1, 0.5, 2.5 mM
Procedure: Phenylalanine (final concentration: 1 mM), test compound (final concentration: 0.1, 0.5, 2.5 mM), hydrogen peroxide (final concentration: 5 mM) and cupric sulfate (final concentration: 0.1 mM) were dissolved in 200 mM of phosphate buffer (pH7.4) (total volume 500 μL), followed by incubation at 37° C. for 4 hours. Then, DTPA (final concent-ration: 1 mM) and 260 unit of catalase were added thereto to interrupt the reaction. The amounts of o-tyrosine and m-tyrosine formed were determined by HPLC in the following manner: after a designed period of time, the reaction mixture was diluted to 100 folds; 20 μL of the dilution was injected onto HPLC, separation was made with C18 column (4.6×250 mm, 5 μm; Nomura Kagaku) and detection was effected using a fluorescence detector (RF-10A: Shimazu Seisakusho) under the condition of an excitation wavelength of 275 nm and a fluorescence wavelength of 305 nm. In the mobile phase, the flow rate was 0.6mL/min and the concentration of buffer B was varied from 6.5% to 10% in 25 minutes (buffer A: 0.10% trifluoroacetic acid; buffer B: 80% acetonitrile containing 0.08% trifluoroacetic acid).

[3] = Suppressing effect on the nitration of tyrosine with peroxynitrite; assay type: biochemical; details: in comparison with pyridoxamine as positive control; 0.1, 0.5, 2.5 and 5 mM
Procedure: According to the method of Pannala, A.S. et al. (Free Radic. Biol. Med., 24:594-606, 1998), the examination was carried out. Namely, tyrosine (final concentration: 100 μM), the test compound (final concentration: 0.1, 0.5, 2.5 and 5 mM) and peroxynitrite (Dojin Kagaku) (final concentration: 500 μM) were dissolved in 200 mM of phosphate buffer (pH7.4) (liquid volume 500 μL) and incubated at 37° C. for 15 minutes. After incubation, the nitrotyrosine formation was determined with HPLC in the following manner: after a predifined time, the reaction mixture (20 μL) was injected onto HPLC, separation was made with C18 column (4.6×250 mm, 5 μm: Waters) and the detection was effected using a ultraviolet detector (RF-10A: Shimazu Seisakusho) at a wavelength of 280 nm. In the mobile phase, the flow rate was 0.6 mL/min and the concentration of buffer B was varied from 5.0% to 30% in 30 minutes (buffer A: 0.10% trifluoroacetic acid; buffer B: 80% acetonitrile containing 0.08% trifluoroacetic acid). 4-Hydroxy-3-nitrobenzoic acid (100 μM) was used as the internal standard.

[4] = Acute toxicity examination, single oral administration to mouse; details: male, in vivo, ICR mice, single oral administration
Procedure: (§1) For 4-(5-phenyltetrazol-1-ylmethyl)-morpholine (compound 1) and (5-phenyltetrazol-1-yl) methanol (compound 3), acute toxicity test was carried out using mice. Each compounds were suspended in carboxymethyl cellulose in given concentration to prepare sample for oral administration. Then single oral administration was done to mouse. The dose is 100, 250, 500, 1000 and 2000 mg/kg. Five ICR mice (male , 8 weeks aged, closed colony) were used in each group. The test material was administrated to determine LD50 value.

ICR mice = experiment: as above; details: in vivo, po
Procedure: as §1

[5] = Absorbability examination, oral administration to rat; assay type: in vivo; details: 50 mg/kg oral
Procedure: For 4-(5-phenyltetrazol-1-yl methyl)-morpholine (compound 1) and (5-phenyltetrazol-1-yl)methanol (compound 3), their sorbability were examined. Each compounds are suspended in carboxymethyl cellulose in given concentration to prepare sample for oral administration. Then each samples were administered in the ratio of 50 mg/kg to rat using sonde. Five Wister rats (male, 8 weeks aged, closed colony) were used every one group. At one hour, 2 hours, 6 hours and 24 hours after the administration of compound, blood was obtained. The obtained blood samples were immediately cetrifuged at 3000 rpm for 15 minutes to obtain the blood plasma and the concentration of the compound in the specimen was quantitated by HPLC. Briefly, to 100 μL of obtained blood plasma was added to 200 μL of acetonitrile, centrifuged at 12000 rpm for 10 minutes to obtain supernatant, deproteinized and served to HPLC. The measuring condition of HPLC was selected from suitable condition for each compounds to separate and quantify. For example, in case of 4-(5-phenyltetrazol-1-yl methyl)-morpholine (compound 1), separated with reverse-phase C18 column (4.6×250 mm, 5 μm: Waters), and then detected using ultraviolet detector (RF-10A: Shimazu Seisakusho) at 240 nm of wavelength to quantify. In mobile phase, the flow rate is 0.8 mL/min and solvent is water: acetonitrile.

[6] = plasma from dialysis patients, 37° C., 7 days, DMSO negative control 2.960

| SMILES | PLP trapping [1] | Pentosidine formation (pentosidine formation; [6]) [nmol/mL] | pentosidine formation suppression (pentosidine formation) | Pentosidine formation (pentosidine formation; same manner as Table 2) [nmol/mL] | also measured |
| --- | --- | --- | --- | --- | --- |
| N=C(N)NN [Aminoguanidine, aminoguanidine, reference compound] | remarkable PLP trapping | 2.604 |  |  |  |
| CN1C(=O)C2N=NN(Cn3nnnc3-c3ccccc3)C2C1=O (stereo not drawn) [Compound 2, 5-methyl-1-(5-phenyltetrazol-1-ylmethyl)-3a,6a-dihydro-1H-pyrrolo[3,4-d][1,2,3]triazole-4,6-dione] | none | 0.320 | suppressed remarkably |  | hydroxylation of phenylalanine with hydroxy radical, suppression [2]: suppressed remarkably; nitrotyrosine formation, suppression [3]: suppressed remarkably |
| OCn1nnnc1-c1ccccc1 [Compound 3, (5-phenyltetrazol-1-yl)-methanol] | none | 0.026 | suppressed remarkably |  | LD50 [4]: > 2000 mg/kg; toxicity (ICR mice): lower toxicity; hydroxylation of phenylalanine with hydroxy radical, suppression [2]: suppressed remarkably; nitrotyrosine formation, suppression [3]: suppressed remarkably; sorbability (plasma concentration after oral administration) [5]: good sorbability |
| c1ccc(-c2nnnn2CN2CCNCC2)cc1 [Compound 4, 1-(5-phenyltetrazol-1-ylmethyl)-piperazine] |  |  | suppressed remarkably | 0.234 |  |
| CN1CCN(Cn2nnnc2-c2ccccc2)CC1 [Compound 5, 1-methyl-4-(5-phenyltetrazol-1-ylmethyl)-piperazine] |  |  | suppressed remarkably | 0.201 |  |
| c1ccc(-c2nnnn2CN2CCSCC2)cc1 [Compound 6, 4-(5-phenyltetrazol-1-ylmethyl)-thiomorpholine] |  |  | suppressed remarkably | 0.149 |  |
| c1ccc(-c2nnnn2CN2CCN(Cn3nnnc3-c3ccccc3)CC2)cc1 [Compound 7, 1,4-bis-(5-phenyltetrazol-1-ylmethyl)-piperazine] |  |  | suppressed remarkably | 0.103 |  |
| Cc1ncc(CO)c(CN)c1O [Pyridoxamine, pyridoxamine, reference compound] |  | 2.280 |  |  |  |
